# Measurements published in US20060229433A1, “Modified antiviral peptides with increased activity and cell membrane affinity” (priority 2003, published 2006).
# “And” between values parts separate entries of the source, which are not always exact repeats. Equal entries are not always repeated. Peptide text beside a SMILES is read from it.
# Experiments:
# Type in all cases: cell-based
# HIV-1 NDK = experiment: HIV-1 infection of C8166 cells (syncytia formation, p24 ELISA) with HIV-1 NDK; design: key to syncitia formed, Day 4 / syncitia formed, Day 5 / syncitia formed, Day 6 / syncitia formed, Day 7: ++, +, (+), (+)− and − represent decreasing numbers of syncitia formed; ++, +, (+), (+)− and − represent decreasing numbers of syncitia formed; ++, +, (+), (+)− and − represent decreasing numbers of syncitia formed; ++, +, (+), (+)− and − represent decreasing numbers of syncitia formed; ++, +, (+), (+)− and − represent decreasing numbers of syncitia formed; settings: for P 24: P 24 after Day 7
# Method in brief: (§1)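 C8166 T-cells were preincubated with peptide for 1 h at 37 °C, then exposed for 1 h to HIV-1 at 1000 TCID50/ml, washed, and cultured with peptide kept present throughout, with medium replaced at day 4. Infection was scored by syncytia formation and by supernatant p24 ELISA, with at least two runs in duplicate.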
# HIV-1 NL 4-3 [1] = experiment: HIV-1 infection of C8166 cells (syncytia formation, p24 ELISA) with HIV-1 NL 4-3; design: key to syncitia formed, Day 4 / syncitia formed, Day 5 / syncitia formed, Day 6 / syncitia formed, Day 7: ++, +, (+), (+)− and − represent decreasing numbers of syncitia formed; ++, +, (+), (+)− and − represent decreasing numbers of syncitia formed; ++, +, (+), (+)− and − represent decreasing numbers of syncitia formed; ++, +, (+), (+)− and − represent decreasing numbers of syncitia formed; ++, +, (+), (+)− and − represent decreasing numbers of syncitia formed
# Method in brief: as §1
# HIV-1 NL 4-3 [2] = experiment: as above; design: key: ++, +, (+), (+)− and − represent decreasing numbers of syncitia formed; ++, +, (+), (+)− and − represent decreasing numbers of syncitia formed; ++, +, (+), (+)− and − represent decreasing numbers of syncitia formed; ++, +, (+), (+)− and − represent decreasing numbers of syncitia formed; ++, +, (+), (+)− and − represent decreasing numbers of syncitia formed; settings: Table 6
# Method in brief: as §1
# [3] = C8166 cells, HIV-1 subtype B NL 4-3, Table 9, two lines = tested twice, 8 days apart
structure (smiles),measurement,setting,value
"N=C(N)NCCC[C@H](NC(=O)CNC(=O)[C@@H]1CCCN1C(=O)CN)C(=O)O [GPGR, reference compound] (H-GPGR-OH; N-terminus and C-terminus assumed)","syncitia formed, Day 4",HIV-1 NDK; 0.005 μM,−
same,"syncitia formed, Day 5",HIV-1 NDK; 0.005 μM,+
same,"syncitia formed, Day 6",HIV-1 NDK; 0.005 μM,++
same,"syncitia formed, Day 7",HIV-1 NDK; 0.005 μM,++/T
same,P 24,HIV-1 NDK; 0.005 μM,23810 pg/mL
same,"syncitia formed, Day 4",HIV-1 NDK; 0.01 μM,−
same,"syncitia formed, Day 5",HIV-1 NDK; 0.01 μM,+
same,"syncitia formed, Day 6",HIV-1 NDK; 0.01 μM,++
same,"syncitia formed, Day 7",HIV-1 NDK; 0.01 μM,++
same,P 24,HIV-1 NDK; 0.01 μM,23810 pg/mL
same,"syncitia formed, Day 4",HIV-1 NDK; 0.05 μM,−
same,"syncitia formed, Day 5",HIV-1 NDK; 0.05 μM,+
same,"syncitia formed, Day 6",HIV-1 NDK; 0.05 μM,++
same,"syncitia formed, Day 7",HIV-1 NDK; 0.05 μM,++
same,P 24,HIV-1 NDK; 0.05 μM,23810 pg/mL
same,"syncitia formed, Day 4",HIV-1 NDK; 0.1 μM,−
same,"syncitia formed, Day 5",HIV-1 NDK; 0.1 μM,(+)
same,"syncitia formed, Day 6",HIV-1 NDK; 0.1 μM,++
same,"syncitia formed, Day 7",HIV-1 NDK; 0.1 μM,++
same,P 24,HIV-1 NDK; 0.1 μM,21810 pg/mL and 23870 pg/mL
same,"syncitia formed, Day 4",HIV-1 NDK; 0.5 μM,−
same,"syncitia formed, Day 5",HIV-1 NDK; 0.5 μM,(+)
same,"syncitia formed, Day 6",HIV-1 NDK; 0.5 μM,++
same,"syncitia formed, Day 7",HIV-1 NDK; 0.5 μM,++
same,P 24,HIV-1 NDK; 0.5 μM,9810 pg/mL and 15856 pg/mL
same,"syncitia formed, Day 4",HIV-1 NDK; 1 μM,−
same,"syncitia formed, Day 5",HIV-1 NDK; 1 μM,−
same,"syncitia formed, Day 6",HIV-1 NDK; 1 μM,+
same,"syncitia formed, Day 7",HIV-1 NDK; 1 μM,++
same,P 24,HIV-1 NDK; 1 μM,9870 pg/mL and 13890 pg/mL
same,"syncitia formed, Day 4",HIV-1 NDK; 5 μM,−
same,"syncitia formed, Day 5",HIV-1 NDK; 5 μM,−
same,"syncitia formed, Day 6",HIV-1 NDK; 5 μM,+
same,"syncitia formed, Day 7",HIV-1 NDK; 5 μM,++
same,IC50,"HIV-1 NDK; HIV 1 NDK, Table 10",500 nM
same,IC100,"HIV-1 NDK; HIV 1 NDK, Table 10",>5 µM
same,Day 7 syncitia formed,"HIV-1 NL 4-3 [1]; 0.005 μM, Table 6",++/T
same,"syncitia formed, Day 4","HIV-1 NL 4-3 [1]; 0.01 μM, C8166 cells",(+)
same,"syncitia formed, Day 5","HIV-1 NL 4-3 [1]; 0.01 μM, C8166 cells",+
same,"syncitia formed, Day 6","HIV-1 NL 4-3 [1]; 0.01 μM, C8166 cells",++
same,"syncitia formed, Day 7","HIV-1 NL 4-3 [1]; 0.01 μM, Day 7, C8166 cells",++
same,P 24,"HIV-1 NL 4-3 [1]; 0.01 μM, P 24 after Day 7, C8166 cells",23810 pg/mL
same,"syncitia formed, Day 4","HIV-1 NL 4-3 [1]; 0.05 μM, C8166 cells",(+)
same,"syncitia formed, Day 5","HIV-1 NL 4-3 [1]; 0.05 μM, C8166 cells",+
same,"syncitia formed, Day 6","HIV-1 NL 4-3 [1]; 0.05 μM, C8166 cells",+
same,"syncitia formed, Day 7","HIV-1 NL 4-3 [1]; 0.05 μM, Day 7, C8166 cells",++
same,P 24,"HIV-1 NL 4-3 [1]; 0.05 μM, P 24 after Day 7, C8166 cells",13810 pg/mL and 12980 pg/mL
same,"syncitia formed, Day 4","HIV-1 NL 4-3 [1]; 0.1 μM, C8166 cells",−
same,"syncitia formed, Day 5","HIV-1 NL 4-3 [1]; 0.1 μM, C8166 cells",(+)
same,"syncitia formed, Day 6","HIV-1 NL 4-3 [1]; 0.1 μM, C8166 cells",+
same,"syncitia formed, Day 7","HIV-1 NL 4-3 [1]; 0.1 μM, Day 7, C8166 cells",+
same,"syncitia formed, Day 4","HIV-1 NL 4-3 [1]; 0.5 μM, C8166 cells",−
same,"syncitia formed, Day 5","HIV-1 NL 4-3 [1]; 0.5 μM, C8166 cells",−
same,"syncitia formed, Day 6","HIV-1 NL 4-3 [1]; 0.5 μM, C8166 cells",−
same,"syncitia formed, Day 7","HIV-1 NL 4-3 [1]; 0.5 μM, Day 7, C8166 cells",+
same,P 24,"HIV-1 NL 4-3 [1]; 0.5 μM, P 24 after Day 7, C8166 cells",23000 pg/mL and 15810 pg/mL
same,"syncitia formed, Day 4","HIV-1 NL 4-3 [1]; 1 μM, C8166 cells",−
same,"syncitia formed, Day 5","HIV-1 NL 4-3 [1]; 1 μM, C8166 cells",−
same,"syncitia formed, Day 6","HIV-1 NL 4-3 [1]; 1 μM, C8166 cells",−
same,"syncitia formed, Day 7","HIV-1 NL 4-3 [1]; 1 μM, Day 7, C8166 cells",(+)
same,P 24,"HIV-1 NL 4-3 [1]; 1 μM, P 24 after Day 7, C8166 cells",316 pg/mL and 343 pg/mL
same,"syncitia formed, Day 4","HIV-1 NL 4-3 [1]; 5 μM, C8166 cells",−
same,"syncitia formed, Day 5","HIV-1 NL 4-3 [1]; 5 μM, C8166 cells",−
same,"syncitia formed, Day 6","HIV-1 NL 4-3 [1]; 5 μM, C8166 cells",−
same,"syncitia formed, Day 7","HIV-1 NL 4-3 [1]; 5 μM, Day 7, C8166 cells",(+)
same,P 24,"HIV-1 NL 4-3 [1]; 5 μM, P 24 after Day 7, C8166 cells",152 pg/mL
same,IC50,HIV-1 NL 4-3 [1]; [3],60 nM and 100 nM
same,IC100,HIV-1 NL 4-3 [1]; [3],5 µM and >5 µM
same,P 24,"HIV-1 NL 4-3 [1]; Day 7, 0.005 μM, Table 6",23810 pg/mL
same,P 24,"HIV-1 NL 4-3 [1]; Day 7, 0.01 μM, Table 6",23810 pg/mL
same,P 24,"HIV-1 NL 4-3 [1]; Day 7, 0.1 μM, Table 6",5810 pg/mL and 10110 pg/mL
same,P 24,"HIV-1 NL 4-3 [1]; Day 7, 0.5 μM, Table 6",2507 pg/mL and 2840 pg/mL
same,Day 4 syncitia formed,HIV-1 NL 4-3 [2]; 0.005 μM,−
same,Day 5 syncitia formed,HIV-1 NL 4-3 [2]; 0.005 μM,++
same,Day 6 syncitia formed,HIV-1 NL 4-3 [2]; 0.005 μM,++
same,Day 4 syncitia formed,HIV-1 NL 4-3 [2]; 0.01 μM,−
same,Day 5 syncitia formed,HIV-1 NL 4-3 [2]; 0.01 μM,+
same,Day 6 syncitia formed,HIV-1 NL 4-3 [2]; 0.01 μM,++
same,Day 7 syncitia formed,HIV-1 NL 4-3 [2]; 0.01 μM,++
same,Day 4 syncitia formed,HIV-1 NL 4-3 [2]; 0.05 μM,−
same,Day 5 syncitia formed,HIV-1 NL 4-3 [2]; 0.05 μM,+
same,Day 6 syncitia formed,HIV-1 NL 4-3 [2]; 0.05 μM,+
same,Day 7 syncitia formed,HIV-1 NL 4-3 [2]; 0.05 μM,++
same,Day 4 syncitia formed,HIV-1 NL 4-3 [2]; 0.1 μM,−
same,Day 5 syncitia formed,HIV-1 NL 4-3 [2]; 0.1 μM,(+)
same,Day 6 syncitia formed,HIV-1 NL 4-3 [2]; 0.1 μM,+
same,Day 7 syncitia formed,HIV-1 NL 4-3 [2]; 0.1 μM,+
same,Day 4 syncitia formed,HIV-1 NL 4-3 [2]; 0.5 μM,−
same,Day 5 syncitia formed,HIV-1 NL 4-3 [2]; 0.5 μM,−
same,Day 6 syncitia formed,HIV-1 NL 4-3 [2]; 0.5 μM,−
same,Day 7 syncitia formed,HIV-1 NL 4-3 [2]; 0.5 μM,+
same,Day 4 syncitia formed,HIV-1 NL 4-3 [2]; 1 μM,−
same,Day 5 syncitia formed,HIV-1 NL 4-3 [2]; 1 μM,−
same,Day 6 syncitia formed,HIV-1 NL 4-3 [2]; 1 μM,−
same,Day 7 syncitia formed,HIV-1 NL 4-3 [2]; 1 μM,+
same,Day 4 syncitia formed,HIV-1 NL 4-3 [2]; 5 μM,−
same,Day 5 syncitia formed,HIV-1 NL 4-3 [2]; 5 μM,−
same,Day 6 syncitia formed,HIV-1 NL 4-3 [2]; 5 μM,−
same,Day 7 syncitia formed,HIV-1 NL 4-3 [2]; 5 μM,−
